Columns and labels:
[1] = system: superoxide dismutase (SOD); assay: SOD activity in cell lysate (epinephrine auto-oxidation); format: cell-based, bovine
Description: (§1) Cells pretreated with different concentrations of E2 for 24 hours were harvested in a solution containing 50 mM Tris-HCl (pH 7.4), 1 mM EDTA, 2 μg/ml pepstatin A, 10 μg/ml benzamidine, and 10 μg/ml trypsin inhibitor. The cells were then lysed on ice by sonication at a setting of 50 mW, with 3×15 set cycles using a Cole-Parmer Ultrasonic Homogenizer (Chicago, Ill.). Protein concentrations in the samples were determined by the Bradford method with bovine serum albumin as a standard (Bradford, Anal. Biochem. 72:248-254, 1976).
SOD activity was determined by a method based on the ability of SOD to suppress epinephrine auto-oxidation (Misra and Fridovich, J.Biol. Chem. 247:3170-3175, 1972). One unit of SOD activity is defined as the amount of protein that inhibits the oxidation of epinephrine by 50%. Briefly, 100 μl of 10×-diluted cell homogenate (about 10 μg protein) was added to 900 μl of carbonate buffer (0.1 M NaHCO3, 0.1 M Na2CO3, 0.1 mM EDTA, pH 10.2) containing 0.7 mM of epinephrine. The absorbency of the mixture was measured for 4 minutes at 480 nm using a Hitachi U-2000 spectrophotometer (Hitachi, San Jose, Calif.).

[2] = system: catalase (CAT); assay: CAT activity in cell lysate (H2O2 degradation); format: cell-based, bovine
Description: as §1
CAT activity was determined by the method of Aebi (Methods Enzymol. 105:121,-126, 1984). One unit of CAT activity is defined as the amount of protein that degrades 1 μmole of H2O2 per minute. Initially, 10 μl of absolute ethanol was mixed with 100 μl of cell homogenates and pre-incubated at 4° C. for 30 minutes. Following the addition of 10 μl Triton X-100 (reduced form), a 100 μl aliquot (about 100 μg of protein) of the resultant mixture was next added to 500 μl of hydrogen peroxide (66 mM) and 400 μl of phosphate buffer (0.1 M NaH2PO4, 0.1 M Na2HPO4, 0.1 mM EDTA, pH 7.0). The absorbency of the mixture was monitored for one minute at 240 nm spectrophotometrically. The molar extinction coefficient of 43.6 M/cm was used to determine the catalase activity.

[3] = system: glutathione peroxidase (GPX); assay: GPX activity in cell lysate (NADPH oxidation); format: cell-based, bovine
Description: as §1
GPX activity was determined by a modified method of Flohe and Gunzler (Methods Enzymol. 105:114-121, 1984). One unit of GPX activity is defined as the amount of protein that oxidizes 1 nmole of β-NADPH per minute. In this assay, 100 μl of cell homogenate (about 100 μg protein) was added to 800 μl of phosphate buffer (0.1 M NaH2PO4, 0.1 M Na2HPO4, 0.1 mM EDTA, pH 7.0) containing 12.5 mM glutathione (reduced form, GSH), 0.2 mM β-nicotinamide adenine dinucleotide phosphate (reduced form, β-NADPH), and 0.34 U glutathione reductase. This mixture was pre-incubated at 37 C for 10 minutes and then 100 μl of 12 mM t-butyl hydroperoxide was added. The absorbency of the mixture was determined at 340 nm for 3 minutes. The molar extinction coefficient of 6.22 mM/cm was used to determine the activity of GPX.

[4] = system: cardiomyocytes; details: cited from earlier work
[5] = system: bovine aortic endothelial cells (bAECs); assay: Lysophosphatidylcholine or homocysteine/Cu2+ challenge of E2-pretreated cells, cell survival; format: cell-based
Description: Prior to E2 pretreatment, cells were grown in phenol red-free DMEM supplemented with 10% dextran/charcoal-stripped FBS for at least 1 passage (3-4 days). Phenol red-free Dulbecco's modified medium was used to avoid potential estrogenic interference. Serum steroid deprivation was conducted according to the conditions described by Yeh et al. (Proc. Natl. Acad. Sci. USA 95:5527-5532, 1998). The E2 level in the stripped serum was assayed using an [^125I] 17β-estradiol radioimmunoassay kit (TKE21, Diagnostic Products Corporation, Los Angeles, Calif.). […] The cells grown in E2-free environments were plated onto Falcon 24-well Primariae™ plates at a density of 5×10^4 cells/well. […]
Cell survival after oxidative challenge was assessed with a 3-(4,5-dimethylthiazol-2-yl) 2,5 diphenyltetrazolium bromide (MTT) assay in which the mitochondrial dehydrogenase activity of viable cells reduces MTT to a blue formazan product (Carmichael et al. Cancer Res. 47:936-942, 1987). […] Following cell lysis, the absorbency was measured at 570 nm and used as an indicator of relative cell survival. The surviving fraction was calculated as compared to the cells without paraquat challenge.

[6] = system: LDL; details: 5-50 μM; oxidation by copper ions, monocytes, or endothelial cells; cited from earlier work
[7] = system: endothelial nitric oxide synthase; details: cited from earlier work
[8] = system: bovine aortic endothelial cells (bAECs)
Description: Prior to E2 pretreatment, cells were grown in phenol red-free DMEM supplemented with 10% dextran/charcoal-stripped FBS for at least 1 passage (3-4 days). Phenol red-free Dulbecco's modified medium was used to avoid potential estrogenic interference. Serum steroid deprivation was conducted according to the conditions described by Yeh et al. (Proc. Natl. Acad. Sci. USA 95:5527-5532, 1998). The E2 level in the stripped serum was assayed using an [^125I] 17β-estradiol radioimmunoassay kit (TKE21, Diagnostic Products Corporation, Los Angeles, Calif.). […] The cells grown in E2-free environments were plated onto Falcon 24-well Primariae™ plates at a density of 5×10^4 cells/well. E2 in dimethylsulfoxide (DMSO) was added to each well at final concentrations ranging from 1 nM to 10 μM 3 hours after plating, and the cells were then incubated for 24 hours (a duration commonly used for the studies of the genomic effects of E2) at 37° C. Control cells were treated with a corresponding amount of DMSO (a final concentration 0.05%).
To study the difference between male and female cells in their response to E2, bAECs from male and female animals were treated with various concentrations of E2 for 24 hours and then challenged with paraquat (1,1′-dimethyl-4,4′-bipyridinium dichloride, methyl viologen). Paraquat was used because it generates the superoxide anion O2 in living cells. […] Accordingly, E2 ranging in concentration from 1 nM to 10 μM was used in these studies.

[9] = 1 nM E2 pretreatment (Example 8)
[10] = female bAECs, 24 h 1 nM E2 (Example 12)

## C[C@]12CC[C@@H]3c4ccc(O)cc4CC[C@H]3[C@@H]1CC[C@@H]2O [E2, 17β-estradiol]
[1]; [9]
  SOD activity elevation relative to untreated cells: approximately 4 fold
[1]; [10]
  SOD activity increase: about 4 fold
[2]; [9]
  CAT activity elevation relative to untreated cells: ~2 fold
[2]; [10]
  CAT activity increase: ~2 fold
[3]; [9]
  GPX activity elevation relative to untreated cells: ~2 fold
[3]; [10]
  GPX activity increase: ~3 fold
[4]
  effect on high K+-induced Ca++ loading or hypercontracture: prevent high K+-induced intracellular Ca++ loading or hypercontracture
[5]; homocysteine/Cu2+ 1 mM/25 μM, 3 hours
  survival after homocysteine/Cu2+ challenge: gained survival benefit
[5]; lysophosphatidylcholine 10 μg/ml, 60 min
  survival after lysophosphatidylcholine challenge: gained survival benefit
[6]
  effect on LDL oxidation: inhibit LDL oxidation
[7]
  optimal concentration of E2 for endothelial nitric oxide synthase induction: 1 to 10 nM
[8]; both, bovine, 24 h
  E2 concentration that suppressed growth: ≥ 100 µM
[8]; female, bovine, 24 h
  E2 concentration that significantly inhibited endothelial cell growth: ≥ 100 µM
[8]; groups pretreated with various doses of E2, comparable among groups, average
  cell count without subsequent paraquat exposure: 3.1×10^5 per well

— US20020164581A1 (priority 2001, published 2002)
